Assay results as given in ChEMBL document CHEMBL1201862, “PubChem BioAssay data set” (2004).
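Five compound concentrations were applied to cells in 96-well plates for 48 hours; endpoints were derived by simple linear interpolation of the resulting dose-response curve. The concentration for 50% growth inhibition is given as GI50.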 Calls of active or inactive are those of the source. Rule as the data show it: active = GI50 up to about 1.1 µM and inactive = higher.

Key:
Test in all cases: NCI anticancer screen, dose series, 48 h
LOX IMVI = tested on: LOX IMVI
U-251 = tested on: U-251
Malme-3M = tested on: Malme-3M
A549 = tested on: A549
HCT-116 = tested on: HCT-116
786-0 = tested on: 786-0
SF-539 = tested on: SF-539
SK-MEL-2 = tested on: SK-MEL-2
MOLT-4 = tested on: MOLT-4
SNB-19 = tested on: SNB-19
Hs-578T = tested on: Hs-578T
MDA-MB-435 = tested on: MDA-MB-435
K562 = tested on: K562
A498 = tested on: A498
HL-60 = tested on: HL-60
NCI-H23 = tested on: NCI-H23
HOP-62 = tested on: HOP-62
PC-3 = tested on: PC-3
OVCAR-8 = tested on: OVCAR-8
COLO 205 = tested on: COLO 205

| SMILES | GI50 (LOX IMVI) | GI50 (U-251) | GI50 (Malme-3M) | GI50 (A549) | GI50 (HCT-116) | GI50 (786-0) | GI50 (SF-539) | GI50 (SK-MEL-2) | GI50 (MOLT-4) | GI50 (SNB-19) | GI50 (Hs-578T) | GI50 (MDA-MB-435) | GI50 (K562) | GI50 (A498) | GI50 (HL-60) | GI50 (NCI-H23) | GI50 (HOP-62) | GI50 (PC-3) | GI50 (OVCAR-8) | GI50 (COLO 205) |
| --- | --- | --- | --- | --- | --- | --- | --- | --- | --- | --- | --- | --- | --- | --- | --- | --- | --- | --- | --- | --- |
| Nc1nc(Cl)cc(NCC2(O)CC2)n1 | > 100 µM (inactive) | > 100 µM (inactive) | > 100 µM (inactive) | > 100 µM (inactive) | > 100 µM (inactive) | > 100 µM (inactive) | > 100 µM (inactive) | > 100 µM (inactive) | > 100 µM (inactive) | > 100 µM (inactive) | > 100 µM (inactive) | > 100 µM (inactive) | > 100 µM (inactive) | > 100 µM (inactive) | > 100 µM (inactive) | > 100 µM (inactive) | > 100 µM (inactive) | > 100 µM (inactive) | > 100 µM (inactive) | – |
| Cn1c2cn[nH]c(=O)c2c2ccc3ccccc3c21 | 21.9 µM (inactive) | 19.9 µM (inactive) | > 100 µM (inactive) | 27.7 µM (inactive) | 29 µM (inactive) | 7.62 µM (inactive) | 48.4 µM (inactive) | 18.2 µM (inactive) | 27.2 µM (inactive) | 26.5 µM (inactive) | 11.9 µM (inactive) | 69.7 µM (inactive) | 86.1 µM (inactive) | 9.04 µM (inactive) | 85.5 µM (inactive) | 21.6 µM (inactive) | 13.1 µM (inactive) | 51.2 µM (inactive) | 41.6 µM (inactive) | 23.9 µM (inactive) |
| CCN(CC)c1ccc(/C=C/C(=O)c2cc(C(C)(C)C)c(O)c(C(C)(C)C)c2)cc1 | 5.78 µM (inactive) | 3.3 µM (inactive) | > 100 µM (inactive) | 19.6 µM (inactive) | 3.21 µM (inactive) | 14.2 µM (inactive) | 3.19 µM (inactive) | 6.76 µM (inactive) | 4.49 µM (inactive) | 38 µM (inactive) | 5.93 µM (inactive) | 3.21 µM (inactive) | 8.45 µM (inactive) | 31.3 µM (inactive) | 3.37 µM (inactive) | 9.77 µM (inactive) | 27 µM (inactive) | 9.18 µM (inactive) | 15.9 µM (inactive) | 4.62 µM (inactive) |
| NCCCCNC1(c2cc3ccccc3s2)CCCCC1 | 1.71 µM (inactive) | 2.34 µM (inactive) | 1.88 µM (inactive) | 5.96 µM (inactive) | 3.65 µM (inactive) | 1.55 µM (inactive) | 1.95 µM (inactive) | 1.88 µM (inactive) | 2.07 µM (inactive) | 7.45 µM (inactive) | 4.51 µM (inactive) | 1.82 µM (inactive) | 1.59 µM (inactive) | 2.16 µM (inactive) | 3.09 µM (inactive) | 14.2 µM (inactive) | 6.03 µM (inactive) | 4.9 µM (inactive) | 7.06 µM (inactive) | 1.74 µM (inactive) |
| OC(c1ccc(F)cc1)(c1ccc(F)cc1)C1CC1 | 20 µM (inactive) | 24 µM (inactive) | 23.9 µM (inactive) | 26.6 µM (inactive) | 26.8 µM (inactive) | 29.2 µM (inactive) | 33.3 µM (inactive) | 16.1 µM (inactive) | 21.5 µM (inactive) | 42.8 µM (inactive) | 26.9 µM (inactive) | 23 µM (inactive) | 31.4 µM (inactive) | 29.2 µM (inactive) | 21.3 µM (inactive) | 17.5 µM (inactive) | 65.9 µM (inactive) | 20 µM (inactive) | 37.2 µM (inactive) | 16.2 µM (inactive) |
| CCCCCc1cc2cc3c(c(O)c2c(=O)[nH]1)C1(CC3)C(=O)c2c(O)c3c(c(O)c2C1=O)C(=O)C(OC)=CC3=O (centres undefined) | 0.662 µM (active) | 0.601 µM (active) | 0.524 µM (active) | 0.845 µM (active) | 0.433 µM (active) | 0.7 µM (active) | – | 0.867 µM (active) | 0.56 µM (active) | 1.08 µM (active) | 1.53 µM (inactive) | 1.49 µM (inactive) | 0.456 µM (active) | 2.31 µM (inactive) | 0.421 µM (active) | 0.701 µM (active) | 3.61 µM (inactive) | 0.568 µM (active) | 0.622 µM (active) | 0.206 µM (active) |
| Cc1nn(-c2ccccc2)c2nc(S)cnc12 | > 100 µM (inactive) | > 100 µM (inactive) | > 100 µM (inactive) | > 100 µM (inactive) | > 100 µM (inactive) | > 100 µM (inactive) | > 100 µM (inactive) | > 100 µM (inactive) | > 100 µM (inactive) | > 100 µM (inactive) | > 100 µM (inactive) | > 100 µM (inactive) | > 100 µM (inactive) | > 100 µM (inactive) | > 100 µM (inactive) | > 100 µM (inactive) | > 100 µM (inactive) | > 100 µM (inactive) | > 100 µM (inactive) | – |
| Cc1ccc(S(=O)(=O)NC(=O)NCC(=O)NCC(=O)O)cc1 | > 100 µM (inactive) | > 100 µM (inactive) | > 100 µM (inactive) | > 100 µM (inactive) | > 100 µM (inactive) | > 100 µM (inactive) | > 100 µM (inactive) | > 100 µM (inactive) | > 100 µM (inactive) | > 100 µM (inactive) | > 100 µM (inactive) | > 100 µM (inactive) | > 100 µM (inactive) | > 100 µM (inactive) | > 100 µM (inactive) | > 100 µM (inactive) | – | > 100 µM (inactive) | > 100 µM (inactive) | > 100 µM (inactive) |
| CC(=O)/N=C1/N(/C=C2\C(=O)Oc3ccccc3C2=O)C(=O)/C(=C/c2cccc(Cl)c2Cl)N1C | 24.6 µM (inactive) | 23.1 µM (inactive) | 33.6 µM (inactive) | 28.2 µM (inactive) | 29.4 µM (inactive) | 34.3 µM (inactive) | 4.42 µM (inactive) | 19.8 µM (inactive) | 20.7 µM (inactive) | – | 3.87 µM (inactive) | 25.6 µM (inactive) | 10.7 µM (inactive) | 4.68 µM (inactive) | 3.99 µM (inactive) | 23.9 µM (inactive) | 19.7 µM (inactive) | 35.3 µM (inactive) | 19.7 µM (inactive) | 31.3 µM (inactive) |
| Cn1ccnc1CCc1ccc(F)cc1F | > 100 µM (inactive) | > 100 µM (inactive) | > 100 µM (inactive) | > 100 µM (inactive) | – | > 100 µM (inactive) | > 100 µM (inactive) | > 100 µM (inactive) | > 100 µM (inactive) | > 100 µM (inactive) | > 100 µM (inactive) | > 100 µM (inactive) | > 100 µM (inactive) | > 100 µM (inactive) | > 100 µM (inactive) | > 100 µM (inactive) | > 100 µM (inactive) | > 100 µM (inactive) | > 100 µM (inactive) | > 100 µM (inactive) |
| Cn1c(COC(=O)NC2CCCCC2)c(COC(=O)NC2CCCCC2)c2ccc3cc(Cl)c(Cl)cc3c21 | 13.6 µM (inactive) | 6 µM (inactive) | 6.43 µM (inactive) | 48.1 µM (inactive) | 7.43 µM (inactive) | 6 µM (inactive) | 14.8 µM (inactive) | 14.1 µM (inactive) | 14.8 µM (inactive) | 11.1 µM (inactive) | 3.66 µM (inactive) | 17.6 µM (inactive) | 3.61 µM (inactive) | 12.7 µM (inactive) | 9.62 µM (inactive) | 15.6 µM (inactive) | – | 15.3 µM (inactive) | 28.2 µM (inactive) | 11.7 µM (inactive) |
| CC(C)C(C/C=C1/CC(CO)(COC(=O)CC(C(C)C)C(C)C)OC1=O)C(C)C (centres undefined) | 5.27 µM (inactive) | 11.6 µM (inactive) | 10.7 µM (inactive) | 0.298 µM (active) | 16.2 µM (inactive) | 5.61 µM (inactive) | 11.2 µM (inactive) | 15.2 µM (inactive) | – | 12.5 µM (inactive) | 0.102 µM (active) | 0.475 µM (active) | 0.389 µM (active) | 2.98 µM (inactive) | 0.0931 µM (active) | 14.7 µM (inactive) | 1.34 µM (inactive) | 4.85 µM (inactive) | 16.1 µM (inactive) | 0.0811 µM (active) |
| C=C(C(=O)O)[C@@H]1C[C@@H]2O[C@H]1CC(C)=CCC/C(C)=C/CC[C@@]2(C)O | > 100 µM (inactive) | > 100 µM (inactive) | > 100 µM (inactive) | > 100 µM (inactive) | > 100 µM (inactive) | > 100 µM (inactive) | > 100 µM (inactive) | > 100 µM (inactive) | > 100 µM (inactive) | > 100 µM (inactive) | > 100 µM (inactive) | > 100 µM (inactive) | > 100 µM (inactive) | > 100 µM (inactive) | > 100 µM (inactive) | – | – | > 100 µM (inactive) | > 100 µM (inactive) | > 100 µM (inactive) |
| COc1ccc2nc3c(nc2c1)C(C)(C)C=C3c1ccc(Br)cc1 | > 100 µM (inactive) | 97.9 µM (inactive) | > 100 µM (inactive) | > 100 µM (inactive) | > 100 µM (inactive) | > 100 µM (inactive) | 97.3 µM (inactive) | > 100 µM (inactive) | > 100 µM (inactive) | > 100 µM (inactive) | > 100 µM (inactive) | > 100 µM (inactive) | > 10 µM (inactive) | > 100 µM (inactive) | > 100 µM (inactive) | – | > 100 µM (inactive) | > 100 µM (inactive) | > 100 µM (inactive) | > 100 µM (inactive) |
